Experimental findings from patent US20250099475A1, “METHODS OF TREATING HYPERTENSION BY PERIODIC SUPPRESSION OF ALDOSTERONE SYNTHASE” (Mineralys Therapeutics, Inc., priority 2022, published 2025) are described below.

The structures appear in SMILES notation.

In series [1] the test system is plasma aldosterone (PAC). The series is described as follows: Phase 1 part 1 single ascending dose: pharmacodynamics. Conditions: for PAC reduction compared with placebo: 24 hours post-dose; for Aldosterone AUC0-24, mean (SD): Day 1; for return of baseline aldosterone levels by: single 100-mg doses; for effect on cortisol: single ascending doses. In kind it is in vivo, human. As to the method:
In part 1, Compound A HBr or placebo was administered to 64 healthy Caucasian men aged 18 to 55 years (inclusive) in 8 cohorts of 8 participants each. In each cohort, 6 participants were randomized to receive a single dose of Compound A HBr and 2 participants were randomized to receive matching placebo. All cohorts included 2 sentinel participants of whom 1 received Compound A HBr and 1 received matching placebo. The remaining 6 participants, of whom 5 received Compound A HBr and 1 received placebo, were dosed ≥24 hours following the sentinel participants. The dosing cohorts were 5, 10, 20, 50, 100, 200, 400, and 800 mg. Doses were administered in an ascending order per cohort, with a minimum 10-day interval between consecutive dose levels. Participants received a single dose of Compound A HBr or placebo in the fasted state.
(§1) Plasma concentrations of aldosterone, 11-deoxycortisol, and ACTH; renin activity; renin concentration; and serum concentrations of cortisol and 11-DOC were measured in all parts of the study. The amount of aldosterone, cortisol, sodium, and potassium excreted and the urinary log10 (10×Na^+/K^+) ratio were listed per collection interval.
(§2) PD parameters were derived by non-compartmental analysis using WinNonlin® Professional (version 6.3). AUC0-24 was determined where possible for plasma aldosterone and serum cortisol.
(§3) Log-transformed change from baseline (Day 1, pre-dose) at 24 hours and log-transformed change from baseline at 22 hours on Day 1 (where baseline is Day −1, 22 hours) in plasma aldosterone and serum cortisol were analyzed using a linear model with dose group (each Compound A HBr dose and pooled placebo) as a fixed effect with the corresponding Day 1 pre-dose as a covariate. The LSM difference between each Compound A HBr dose compared with placebo was obtained from the model with the 90% CI and then back-transformed (exponentiated) to obtain estimates of the ratio of adjusted geometric means and 90% CI. Log-transformed change from baseline (time-matched) from 0 to 24 hours post-dose in plasma aldosterone and serum cortisol as repeated measures was analyzed using a linear mixed model with dose group (each active Compound A HBr dose and pooled placebo) as fixed effects, corresponding time-matched values on Day −1 as covariate, and unstructured covariance. The pre-dose time point on Day 1 was used as the 24-hour time point on Day −1. The LSM difference between each Compound A HBr dose compared with placebo was obtained from the model together with the 90% CI, and then back-transformed to obtain estimates of the ratio of adjusted geometric means and 90% CIs. The calculated AUC parameters were analyzed using a linear model. The log-transformed parameter of interest was the dependent variable with dose group (each Compound A HBr dose and pooled placebo) as the fixed effect and log-transformed AUC0-24 on Day −1 as the covariate. The LSM difference between each Compound A HBr dose compared with placebo and 90% CIs was calculated and then back-transformed to obtain estimates of the ratio of adjusted geometric means and 90% CIs.

Series [2] has as its system plasma aldosterone (PAC). The series is described as follows: Phase 1 part 2 multiple ascending dose: pharmacodynamics, ACTH challenge. In kind it is in vivo, human. Conditions: for Aldosterone AUC0-24, mean (SD): Day 7; for return of baseline aldosterone levels by: multiple 120-mg doses. As for the experimental part: In part 2, Compound A HBr or placebo was administered to a total of 36 healthy Caucasian men aged 19 to 54 years (inclusive) in 3 cohorts of 12 participants each. In each cohort, 9 participants were randomized to receive multiple doses of Compound A HBr and 3 participants were randomized to receive matching placebo. The participants received daily doses in the fed state from Day 1 to Day 7. The doses were administered in an ascending order per cohort. Progression to the next dose level and dose selection were based on available data from part 1 and the preceding dose cohort in part 2 (safety, tolerability, and PD data [up to 48 hours post-final dose] and available PK data [up to 24 hours post-final dose] from a minimum of 10 participants [Compound A HBr n≥7] in the preceding dose cohort). The final dose levels of Compound A HBr for part 2 were 40, 120, and 360 mg. An ACTH challenge test was performed on Day −2 and on Day 6 to evaluate Compound A HBr selectivity for aldosterone synthesis. Plasma concentrations of aldosterone and 11-deoxycortisol and serum concentrations of cortisol and 11-DOC were measured pre-ACTH dose and 30 and 60 minutes post-ACTH dose on Day −2 and Day 6.
as §1, §2, §3

Series [3] can be described thus: Phase 1 safety and tolerability. In kind it is in vivo, human. As for the experimental part: A 4-part, Phase 1 randomized, double-blind, placebo-controlled, first-in-human study was performed to determine the safety, tolerability, PK, and PD of single ascending doses (SADs; part 1) and multiple ascending doses (MADs; part 2) of Compound A HBr in healthy participants. The study also assessed whether there were sex (part 3) and age-related (part 4) effects on the PK of a single dose of Compound A HBr. The study was approved by the local independent ethics committee; the BEBO foundation in Assen, Netherlands; and the Central Committee on Research Involving Human Subjects in The Hague, Netherlands; and conducted according to the provisions of the Declaration of Helsinki. Written informed consent was obtained from each study participant before conducting any protocol-related procedures.
Safety measurements (adverse events [AE], safety laboratory, vital signs and electrocardiograms, physical examinations) were summarized and/or listed.

Series [4] concerns plasma aldosterone concentrations (PACs). Briefly: Sodium-depleted cynomolgus monkey model. In kind it is in vivo. Conditions: single oral administration. As for the experimental part:
A sodium-depleted cynomolgus monkey model with secondary hyperaldosteronism was performed to evaluate the effect of Compound A on plasma aldosterone concentrations (PACs). The model used a low-sodium diet and 3 doses of 5 mg/kg furosemide. Two animals each were assigned to 6 groups consisting of a vehicle group and 5 Compound A (free base) groups (0.3, 1, 3, 10, and 30 mg/kg). Six crossovers were performed so that every animal was assigned to each group. Hyperaldosteronism was induced once every 3 weeks. PAC was determined by radioimmunoassay and measured during the 24 hours after Compound A administration.

Turning to `CC(=O)N[C@H]1CC[C@H](NC(=O)CN2CCN(c3nncc(-c4ccc(C)cc4)n3)CC2)CC1` [Compound A HBr], the “PAC reduction compared with placebo” value in the series with plasma aldosterone (PAC) [1] (single doses of 100 and 200 mg) is given as “approximately −40%”; in the series with plasma aldosterone (PAC) [1] (single doses of 400 and 800 mg) it was “approximately −70%”. In addition, the “Aldosterone AUC0-24, mean (SD)” value with plasma aldosterone (PAC) [1] (single 5 mg) was 1436 (531) ng × h/dL; in the series with plasma aldosterone (PAC) [1] (single 10 mg) it was 1075 (418) ng × h/dL; in the series on plasma aldosterone (PAC) [1] (single 20 mg), 911 (286) ng × h/dL; in the series with plasma aldosterone (PAC) [1] (single 50 mg), 731 (247) ng × h/dL; in the series with plasma aldosterone (PAC) [1] (single 100 mg) it was 562 (279) ng × h/dL; in the series with plasma aldosterone (PAC) [1] (single 200 mg), 587 (115) ng × h/dL. For the same compound, the “Aldosterone AUC0-24, mean (SD)” value in the series on plasma aldosterone (PAC) [1] (single 400 mg) is recorded as 403 (122) ng × h/dL; in the series on plasma aldosterone (PAC) [1] (single 800 mg) it was 347 (108) ng × h/dL; with plasma aldosterone (PAC) [2] (40 mg once daily) it was 1343 (702) ng × h/dL; in the series with plasma aldosterone (PAC) [2] (120 mg once daily), 1013 (312) ng × h/dL; in the series on plasma aldosterone (PAC) [2] (360 mg once daily) it was 771 (440) ng × h/dL. Further, the “PAC returned to values near baseline within” value with plasma aldosterone (PAC) [1] (single 5-50 mg) is on record as not above 24 hours post-dose. In the series on plasma aldosterone (PAC) [1] (single 100-800 mg), the “duration of PAC reduction” value was “sustained until 24 hours post-dose”. Also, the “return of baseline aldosterone levels by” value with plasma aldosterone (PAC) [1] and in the series with plasma aldosterone (PAC) [2] was not above 16 h each time. The effect on cortisol entry in the series with plasma aldosterone (PAC) [1] is recorded as “no dose-related effect on cortisol”. In addition, the “decrease of AUC0-24 for PAC vs placebo” value in the series on plasma aldosterone (PAC) [1] (single doses ranging from 10 to 800 mg) is listed as −36% to −77. Further, the “11-DOC and 11-deoxycortisol concentrations after ACTH stimulation” value in the series on plasma aldosterone (PAC) [2] (360 mg, Day 6, compared to placebo) is “trend in increase”. In the series with plasma aldosterone (PAC) [2] (360 mg, after seven once-daily doses), the “reduction in AUC0-24 for PAC compared to placebo” value is listed as “approximately −50%”. Also, the ACTH-stimulated cortisol response entry in the series with plasma aldosterone (PAC) [2] (Day 6, all multiple dose levels) is reported as “no effect on the cortisol response”. In addition, in the series on plasma aldosterone (PAC) [2] (Day 6, all multiple dose levels, compared to placebo), the ACTH-stimulated aldosterone response entry is given as “completely blunted”. Further, the “changes in serum cortisol and plasma 11-deoxycortisol concentrations” value with plasma aldosterone (PAC) [2] (during multiple dosing) was “No relevant changes from baseline”. The “dizziness (of mild intensity), participants” value in series [3] (across all cohorts) was 9 (10.3%). The “serious AEs” value in series [3] (healthy participants, all parts) is recorded as “No serious AEs”.

For the compound `CC(=O)N[C@H]1CC[C@H](NC(=O)CN2CCN(c3nncc(-c4ccc(C)cc4)n3)CC2)CC1` [Compound A], in series [4], the “effect on PAC” value is recorded as “significantly decreased PAC”. The “urinary log10 (10×Na+/K+) ratio” value with plasma aldosterone (PAC) [1] (SAD, doses of ≥10 mg) is listed as “produced an increase”. Moreover, the “PAC (AUC0-24) reduced by” value is on record as “up to 40%” in the series on plasma aldosterone (PAC) [1] (single 100- to 200-mg doses) and “up to 70%” in the series with plasma aldosterone (PAC) [1] (single 400- to 800-mg doses). Further, the “return of baseline aldosterone levels by” value in the series on plasma aldosterone (PAC) [1] and in the series with plasma aldosterone (PAC) [2] was not above 16 h throughout. Besides, the effect on cortisol result with plasma aldosterone (PAC) [1] is on record as “no meaningful effect on serum cortisol levels”. In addition, the “accumulation of serum 11-DOC” value in the series with plasma aldosterone (PAC) [2] (40- and 120-mg daily cohorts) is “did not exceed the normal range”; in the series on plasma aldosterone (PAC) [2] (360-mg daily dose cohort), “much more dramatic increase in 11-DOC”. The “maximum PAC suppression maintained for” value with plasma aldosterone (PAC) [2] (MAD, doses of 40, 120, and 360 mg) is reported as “approximately 12 hours”. The “return of baseline aldosterone levels at” value in the series on plasma aldosterone (PAC) [2] (daily dosing) was approximately 16 h. In addition, in the series with plasma aldosterone (PAC) [2] (once-daily administration, all dose levels compared to placebo), the “serum 11-DOC, plasma renin activity, and potassium concentrations” value was “appeared to increase”. In addition, the “rise in serum potassium” value with plasma aldosterone (PAC) [2] (within 2 days of initiation, all 3 dose cohorts (part 2)) was “approximately 0.5 mmol/L”. Moreover, the tolerability entry in series [3] (single doses up to 800 mg fasting, once-daily up to 360 mg fed, healthy men) is “well-tolerated”.
